From publication PMC11023993, “Piperine, quercetin, and curcumin identified as promising natural products for topical treatment of cutaneous leishmaniasis” (Parasitology Research, 2024)

Columns and labels:
[1] = MTT cytotoxicity assay in uninfected U-937 macrophages; settings: human
Description: U-937 (CRL-1593.2™) macrophages (ATCC, Manassas, VA, USA) were cultured in RPMI-1640 medium supplemented with 10% of FBS and incubated at 37 °C in 5% CO2, 95% humidity atmosphere. U-937 cells in the exponential growth phase were recovered, and washed by centrifugation at 1800 rpm for 10 min at room temperature; the pellet was then resuspended in supplemented RPMI 1640 medium and counted in a Neubauer chamber. The number was adjusted to 1 × 10^6 cells per mL and 100 µL was dispensed into each well of a 96-well plate. Then, another 100 µL of each serial dilution of QUE, PIP, CUR, doxorubicin, and amphotericin B was added to each well by triplicate and plates were incubated at 37 °C 5% CO2, 95% humidity atmosphere for 48 h.
The MTT solution is then added to the treated cells, where the yellow MTT is reduced to purple formazan by a variety of mitochondrial and cytosolic enzymes that are operational in viable cells. After 3 h of incubation with MTT, the formazan precipitates. Consequently, the growing medium was removed, the formazan was dissolved in DMSO, and the absorbance of the solution was measured at 570 nm using a microplate reader spectrophotometer (Varioskan Flash, Thermo Fisher Scientific).
Cells exposed to the standard cytotoxic drug doxorubicin were used as an internal control for toxicity (positive control) while cells incubated in the absence of any compound or drug were used as a control for viability (negative control). A solution of 0.5% DMSO was used as a blank solution. Non-specific absorbance was corrected by subtracting absorbance (OD) of the blank. Determinations were done by triplicate in at least two independent experiments.
The OD of viable cells that remained after treatment was compared to the OD of control cells that were not exposed to the drug. The LC50 (median lethal concentration) values and their statistical errors were calculated based on triplicates of the measurement in the independent assays. The LC50 values were determined by non-linear regression using Prism GraphPad 10.
The LC50 and the EC50 were calculated by Probit analysis using GraphPad Prism 10 (San Diego, CA, USA). Both cytotoxicity and leishmanicidal activity were defined by ranges of values of LC50 and EC50 in terms of high, moderate, or low as follows: high cytotoxicity for LC50 values < 100 µM, moderate cytotoxicity for LC50 values > 100 µM but < 200 µM, and low cytotoxicity for LC50 values > 200 µM. […] In addition, the cytotoxicity in U937 macrophages was correlated with the leishmanicidal activity by calculating the Selectivity Index (SI), using the equation: SI = LC50/EC50 (Indrayanto et al. [2021]).

[2] = tested on: L. braziliensis; design: method as in Dos Santos et al. [2022]; settings: oral 20 mg/kg five times a week, from 7 days after infection for 8 weeks; ref Dos Santos et al. [2022]; cited from earlier work
[3] = tested on: macrophages; design: method as in Dos Santos et al. [2022]; settings: ref Dos Santos et al. [2022], cited from earlier work
[4] = tested on: L. braziliensis; settings: n = 6
Description: Golden hamsters (Mesocricetus auratus) were purchased from Charles River Laboratories (Wilmington MA, USA) and bred under specific pathogen-free conditions at the animal facility unit of the Universidad de Antioquia in Medellín, Colombia. Six- to eight-week-old, male, and female hamsters were used for the experiments. Animal experimentation protocols including handling of the animals, sample collection, and euthanasia were done in compliance of the Center for Diseases Control and Prevention guidelines for Safe Work Practices in Human and Animal Medical Diagnostic Laboratories and ARRIVE guidelines (Percie du Sert et al. [2020b]; Khairani et al. [2022]) and approved by the Institutional Ethical Committee for animal experimentation (Act No. 152 of June 01, 2023) (Percie du Sert et al. [2020a]; Khairani et al. [2022]).
Hamsters were anesthetized with ketamine (80 mg/kg, i.p.) and xylazine (15 mg/Kg) before infection and then, ∼1 × 10^8 promastigotes in stationary phase (6 days-old growth) were inoculated into the dorsum dermis (Robledo et al. [2012]). When hamsters developed ulcers larger than 12.5 mm^2, hamsters were randomly distributed into 4 groups (n = 6, each): (1) group treated with QUE (1 mg/day), (2) group treated with PIP (2.5 mg/day), (3) group treated with CUR (1.5 mg/day), (4) group treated with meglumine antimoniate (treatment control group, 200 µg/mL, intralesional). No vehicle control group was included in the present study because castor oil additive is a nonionic surfactant commonly used as an excipient in pharmaceutical formulations, particularly in solubilizing poorly water-soluble drugs. It is widely used as an ingredient in cosmetics for its conditioning properties, based on occlusive action, reducing water loss, and having a nourishing effect on the skin, hair, and nails (Marwat et al. [2017]; Khairani et al. [2022]).
Hamsters were treated daily with 40 µL of the corresponding formulation for 2 weeks, applying it directly over the lesion, while hamsters treated with meglumine antimoniate received treatment three times per week for 4 weeks. Lesion area was measured every week for 90 days with an electronic digital caliper. The body weight gain or loss was supervised every 2 weeks during the study. At the end of the study, hamsters were euthanized with an i.p. injection of ketamine (600 mg/kg) and xylazine (30 mg/kg). The experiments were carried out under normal laboratory lighting conditions. After necropsy, biopsies from healed and unhealed ulcers were removed and fixed in 10% buffered formalin, processed, and stained with hematoxylin–eosin (H-E) stain for histopathology analysis. The changes were analyzed under a standard optical microscope.

[5] = tested on: L. braziliensis amastigotes; design: method as in Dos Santos et al. [2022]; settings: ref Dos Santos et al. [2022], read-out: antiamastigote activity EC50; cited from earlier work

O=c1c(O)c(-c2ccc(O)c(O)c2)oc2cc(O)cc(O)c12 [Quercetin, quercetin]
CC50 at 48 h [1]: > 662 µM | lesion size and parasite load (lesion and draining lymph node) [2]: effectively controlled the lesion size and reduced the parasite load | concentration giving substantial decrease in macrophage viability [3]: exceeding 640 µM | EC50 ([3]; read-out: macrophage viability, estimated EC50): 478 ± 89 µM | treatment failures ([4]; topical daily for 15 days): No failures | therapeutic response (hamsters cured) ([4]; topical in castor oil daily for 15 days, QUE 1 mg/day, CUR 1.5 mg/day, PIP 2.5 mg/day, followed 90 days): 100% | EC50 [5]: 21 ± 2.5 µM
